Assay results from patent US20240270762A1, “PENICILLIN-BINDING PROTEIN INHIBITORS” (priority 2021, published 2024).
≈ marks a conversion by molar mass, not a printed value. Read-outs that look alike come from different tables or passages of the source.

Experiments:
A. baumannii PBP1a = biological target: T1, A. baumannii PBP1a (Acinetobacter baumannii, UniProt A0ABX6CK30); assay: Bocillin-FL competition binding via gel filtration, A. baumannii PBP1a; settings: competition binding assay using Bocillin-FL via gel filtration; read-out: A. baumannii PBP1a Potency
T1 sequence (A0ABX6CK30 1-851): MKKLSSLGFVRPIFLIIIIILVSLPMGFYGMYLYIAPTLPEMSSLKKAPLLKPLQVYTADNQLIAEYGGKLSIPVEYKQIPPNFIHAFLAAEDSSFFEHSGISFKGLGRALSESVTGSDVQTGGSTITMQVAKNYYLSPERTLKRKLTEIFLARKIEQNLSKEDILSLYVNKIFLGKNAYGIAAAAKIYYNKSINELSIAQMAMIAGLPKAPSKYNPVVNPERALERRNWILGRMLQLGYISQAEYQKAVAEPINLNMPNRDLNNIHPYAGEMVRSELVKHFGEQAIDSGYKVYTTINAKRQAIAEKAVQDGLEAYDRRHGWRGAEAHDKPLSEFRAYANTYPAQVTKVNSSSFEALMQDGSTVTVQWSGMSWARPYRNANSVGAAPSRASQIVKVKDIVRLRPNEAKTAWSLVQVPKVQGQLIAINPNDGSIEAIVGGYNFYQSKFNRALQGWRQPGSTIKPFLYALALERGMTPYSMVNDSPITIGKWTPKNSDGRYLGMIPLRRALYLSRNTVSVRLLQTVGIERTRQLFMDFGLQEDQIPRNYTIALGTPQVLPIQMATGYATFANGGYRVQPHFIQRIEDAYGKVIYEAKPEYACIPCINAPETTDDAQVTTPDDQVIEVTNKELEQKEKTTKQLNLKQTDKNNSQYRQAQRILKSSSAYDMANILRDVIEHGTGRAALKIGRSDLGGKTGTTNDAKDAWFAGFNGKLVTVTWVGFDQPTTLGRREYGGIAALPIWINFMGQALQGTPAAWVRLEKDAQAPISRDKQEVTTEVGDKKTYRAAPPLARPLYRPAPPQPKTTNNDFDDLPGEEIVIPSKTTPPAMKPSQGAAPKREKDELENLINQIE
Procedure, shortened: (§1)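 Enzyme was pre-incubated with rising inhibitor concentrations, then Bocillin-FL was added and incubated 15 minutes more. Bound probe was separated by gel filtration and fluorescence read. EC50 came from fitting fraction of PBP labelled versus inhibitor concentration to a Hill equation with ymin, ymax and n.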

A. baumannii PBP2 = A. baumannii PBP2 (Acinetobacter baumannii, UniProt D0C8Z9); assay: Bocillin-FL competition binding via gel filtration, A. baumannii PBP2
Chain of A. baumannii PBP2 (D0C8Z9 whole entry): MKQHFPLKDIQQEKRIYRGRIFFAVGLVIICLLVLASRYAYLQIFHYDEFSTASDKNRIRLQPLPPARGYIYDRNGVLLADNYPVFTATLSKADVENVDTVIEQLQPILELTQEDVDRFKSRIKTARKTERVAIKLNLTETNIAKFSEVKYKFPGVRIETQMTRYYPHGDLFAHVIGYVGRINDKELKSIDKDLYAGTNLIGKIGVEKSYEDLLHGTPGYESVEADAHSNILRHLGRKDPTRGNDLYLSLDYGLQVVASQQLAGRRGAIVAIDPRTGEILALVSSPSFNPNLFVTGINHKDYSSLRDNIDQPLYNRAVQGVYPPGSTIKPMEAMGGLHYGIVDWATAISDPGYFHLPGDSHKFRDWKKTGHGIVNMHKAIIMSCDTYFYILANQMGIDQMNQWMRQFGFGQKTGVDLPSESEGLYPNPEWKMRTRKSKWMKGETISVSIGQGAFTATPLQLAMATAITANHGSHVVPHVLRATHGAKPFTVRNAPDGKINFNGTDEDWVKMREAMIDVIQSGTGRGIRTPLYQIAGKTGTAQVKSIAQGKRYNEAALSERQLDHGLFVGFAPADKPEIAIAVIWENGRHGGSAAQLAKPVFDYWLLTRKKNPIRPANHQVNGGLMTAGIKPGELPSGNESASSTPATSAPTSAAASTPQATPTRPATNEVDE
Procedure, shortened: as §1

P. aeruginosa ATCC 27853 = assay: microbe, parasite or virus in culture; assay type: cell-based; settings: Pseudomonas aeruginosa, ATCC27853, read-out: Minimum inhibitory concentration, P. aeruginosa ATCC 27853
A. baumannii ATCC 19606 = assay: microbe, parasite or virus in culture; assay type: cell-based; settings: Acinetobacter baumannii, ATCC19606, read-out: MIC, A. baumannii ATCC 19606
P. aeruginosa ATCC 35151 = assay: microbe, parasite or virus in culture; assay type: cell-based; settings: Pseudomonas aeruginosa, ATCC35151, read-out: Minimum inhibitory concentration, P. aeruginosa ATCC 35151
[1] = test system: P. aeruginosa (ΔmexAB-oprM); assay: Broth microdilution MIC in iron-depleted CAMHB (IDM); assay type: cell-based; settings: Pseudomonas aeruginosa; iron-depleted CAMHB (IDM); […]; read-out: Minimum inhibitory concentration, P. aeruginosa ΔmexAB-oprM
P. aeruginosa CDC-0054 = assay: microbe, parasite or virus in culture; assay type: cell-based; settings: Pseudomonas aeruginosa, CDC0054, read-out: Minimum inhibitory concentration, P. aeruginosa CDC-0054
A. baumannii CDC-0045 = assay: microbe, parasite or virus in culture; assay type: cell-based; settings: Acinetobacter baumannii, CDC0045, read-out: MIC, A. baumannii CDC-0045
A. baumannii CDC-0083 = assay: microbe, parasite or virus in culture; assay type: cell-based; settings: Acinetobacter baumannii, CDC0083, read-out: MIC, A. baumannii CDC-0083
[2] = test system: B. thailandensis ATCC 700388; assay: microbe, parasite or virus in culture; assay type: cell-based; settings: Burkholderia thailandensis, ATCC700388, read-out: Minimum inhibitory concentration (MIC), B. thailandensis ATCC 700388
[3] = test system: B. humptydooensis ATCC BAA-2767; assay: microbe, parasite or virus in culture; assay type: cell-based; settings: Burkholderia humptydooensis, ATCCBAA2767, read-out: Minimum inhibitory concentration (MIC), B. humptydooensis ATCC BAA-2767
P. aeruginosa CDC-0110 = assay: microbe, parasite or virus in culture; assay type: cell-based; settings: Pseudomonas aeruginosa, CDC0110, read-out: Minimum inhibitory concentration, P. aeruginosa CDC-0110
N. gonorrhoeae MS11 = assay: Liquid broth MIC in Fastidious broth; settings: Neisseria gonorrhoeae
N. gonorrhoeae CDC-0197 = assay: Liquid broth MIC in Fastidious broth; settings: Neisseria gonorrhoeae
[4] = MS11, read-out: Minimum Inhibitory Concentration, MS11
[5] = CDC0197, read-out: Minimum Inhibitory Concentration, CDC-0197

| SMILES | EC50 (A. baumannii PBP1a) | EC50 (A. baumannii PBP2) | MIC (P. aeruginosa ATCC 27853) | MIC (A. baumannii ATCC 19606) | MIC (P. aeruginosa ATCC 35151) | MIC [1] | MIC (P. aeruginosa CDC-0054) | MIC (A. baumannii CDC-0045) | MIC (A. baumannii CDC-0083) | MIC [2] | MIC [3] | MIC (P. aeruginosa CDC-0110) | MIC (N. gonorrhoeae MS11; [4]) | MIC (N. gonorrhoeae CDC-0197; [5]) | MIC (N. gonorrhoeae MS11; MS11, read-out: Minimum Inhibitory Concentration (MIC), N. gonorrhoeae MS11) | MIC (N. gonorrhoeae CDC-0197; CDC0197, read-out: Minimum Inhibitory Concentration (MIC), N. gonorrhoeae CDC-0197) |
| --- | --- | --- | --- | --- | --- | --- | --- | --- | --- | --- | --- | --- | --- | --- | --- | --- |
| O=C(NCCS(=O)(=O)N1CCN(C(=O)NC(C(=O)N[C@H]2Cc3ccc(F)c(C(=O)O)c3OB2O)c2cc(F)c(O)c(O)c2Cl)C1=O)c1cccc(O)c1 (stereo partly drawn) [Example 261, (3R)-3-(2-(2-chloro-5-fluoro-3,4-dihydroxyphenyl)-2-(3-((2-(3-hydroxybenzamido)ethyl)sulfonyl)-2-oxoimidazolidine-1-carboxamido)acetamido)-7-fluoro-2-hydroxy-3,4-dihydro-2H-benzo[e][1,2]oxaborinine-8-carboxylic acid] | 10 to 50 µM | 10 to 50 µM | 2 to 4 µg/mL (≈ 2.56 to 5.12 µM) | < 1 µg/mL | < 1 µg/mL | < 1 µg/mL | 2 to 4 µg/mL (≈ 2.56 to 5.12 µM) | < 1 µg/mL | < 1 µg/mL | 2 to 4 µg/mL (≈ 2.56 to 5.12 µM) | 2 to 4 µg/mL (≈ 2.56 to 5.12 µM) | 2 to 4 µg/mL (≈ 2.56 to 5.12 µM) | 16 to 32 µg/mL (≈ 20.5 to 40.9 µM) | 16 to 32 µg/mL (≈ 20.5 to 40.9 µM) | – | – |
| O=C(NCCS(=O)(=O)N1CCN(C(=O)NC(C(=O)N[C@H]2Cc3ccc(F)c(C(=O)O)c3OB2O)c2cc(F)c(O)c(O)c2Cl)C1=O)Nc1cccc(O)c1 (stereo partly drawn) [Example 266, (3R)-3-(2-(2-chloro-5-fluoro-3,4-dihydroxyphenyl)-2-(3-((2-(3-(3-hydroxyphenyl)ureido)ethyl)sulfonyl)-2-oxoimidazolidine-1-carboxamido)acetamido)-7-fluoro-2-hydroxy-3,4-dihydro-2H-benzo[e][1,2]oxaborinine-8-carboxylic acid] | < 10 µM | 10 to 50 µM | 2 to 4 µg/mL (≈ 2.51 to 5.02 µM) | < 1 µg/mL | < 1 µg/mL | < 1 µg/mL | 2 to 4 µg/mL (≈ 2.51 to 5.02 µM) | < 1 µg/mL | < 1 µg/mL | 2 to 4 µg/mL (≈ 2.51 to 5.02 µM) | 8 to 16 µg/mL (≈ 10 to 20.1 µM) | 2 to 4 µg/mL (≈ 2.51 to 5.02 µM) | 16 to 32 µg/mL (≈ 20.1 to 40.2 µM) | 16 to 32 µg/mL (≈ 20.1 to 40.2 µM) | – | – |
| O=C(NCCN1CCN(C(=O)NC(C(=O)N[C@H]2Cc3ccc(F)c(C(=O)O)c3OB2O)c2cc(F)c(O)c(O)c2Cl)C(=O)C1=O)Nc1ccc(O)cc1 (stereo partly drawn) [Example 219, (3R)-3-(2-(2-chloro-5-fluoro-3,4-dihydroxyphenyl)-2-(4-(2-(3-(4-hydroxyphenyl)ureido)ethyl)-2,3-dioxopiperazine-1-carboxamido)acetamido)-7-fluoro-2-hydroxy-3,4-dihydro-2H-benzo[e][1,2]oxaborinine-8-carboxylic acid] | < 10 µM | 10 to 50 µM | 2 to 4 µg/mL (≈ 2.63 to 5.26 µM) | < 1 µg/mL | < 1 µg/mL | < 1 µg/mL | 8 to 16 µg/mL (≈ 10.5 to 21 µM) | 8 to 16 µg/mL (≈ 10.5 to 21 µM) | 8 to 16 µg/mL (≈ 10.5 to 21 µM) | 8 to 16 µg/mL (≈ 10.5 to 21 µM) | 8 to 16 µg/mL (≈ 10.5 to 21 µM) | < 1 µg/mL | – | – | 16 to 32 µg/mL (≈ 21 to 42.1 µM) | > 64 µg/mL |
| O=C(NCCCS(=O)(=O)N1CCN(C(=O)NC(C(=O)N[C@H]2Cc3ccc(F)c(C(=O)O)c3OB2O)c2cc(F)c(O)c(O)c2Cl)C1=O)c1ccncc1 (stereo partly drawn) [Example 272, (3R)-3-(2-(2-chloro-5-fluoro-3,4-dihydroxyphenyl)-2-(3-((3-(isonicotinamido)propyl)sulfonyl)-2-oxoimidazolidine-1-carboxamido)acetamido)-7-fluoro-2-hydroxy-3,4-dihydro-2H-benzo[e][1,2]oxaborinine-8-carboxylic acid] | 10 to 50 µM | – | 2 to 4 µg/mL (≈ 2.56 to 5.12 µM) | < 1 µg/mL | < 1 µg/mL | < 1 µg/mL | 8 to 16 µg/mL (≈ 10.2 to 20.5 µM) | < 1 µg/mL | < 1 µg/mL | 2 to 4 µg/mL (≈ 2.56 to 5.12 µM) | 2 to 4 µg/mL (≈ 2.56 to 5.12 µM) | 2 to 4 µg/mL (≈ 2.56 to 5.12 µM) | 16 to 32 µg/mL (≈ 20.5 to 41 µM) | 16 to 32 µg/mL (≈ 20.5 to 41 µM) | – | – |
